This is an account of results in patent publication US20220339259A1, “ORALLY DELIVERED THERAPEUTICAL COMPOSITION AND USE THEREOF” (priority 2019, published 2022).

The nature of data set [1]: Plasma ibrutinib level by HPLC after oral gavage. Particulars: mouse, in vivo. More on the design: species or system mice. How it is done: FIG. 16A-FIG. 16B. Examples of representative HPLC data. Plasma ibrutinib levels were measured by HPLC 3 hours after mice were treated by oral gavage with an equal amount of free ibrutinib and LCFA-ibrutinib. The ibrutinib peaks are indicated with arrows. There was a 3-fold increase in plasma ibrutinib level in mice treated with LCFA-ibrutinib (B) compared with those treated with free ibrutinib (A) based on the measurements of the area under the curve (AUC).
LCFA-conjugated ibrutinib was synthesized and characterized (FIG. 15A-FIG. 15C). To compare drug uptake between free ibrutinib and LCFA-ibrutinib, mice were treated with an equal amount of free ibrutinib or LCFA-ibrutinib. Blood samples were collected at different time points, and analyzed for ibrutinib content by HPLC. Area under the curve (AUC) of ibrutinib was calculated to evaluate plasma drug concentration (FIG. 16A-FIG. 16B).

The conditions of data set [2]: cited from earlier work.
Data set [3] can be described thus: Intraperitoneal glucose tolerance test, Ex4-Lys^27-LCFA in acid-neutralized mice. It counts as in vivo, male C57BL/6 mice. How it is done:
FIG. 11. […] Each mouse was treated orally with 100 μL 1M NaHCO3 to neutralize acid in the gastric fluid. […] The mice were then challenged with intraperitoneal injection of 2 g/kg glucose 1 hour after treatment.
(§1) Intraperitoneal glucose tolerance test (GTT) was performed in male C57BL/6 mice. Briefly, 6 to 12-week-old male C57BL/6 mice were fasted overnight and treated by oral gavage with 100 μL 1M NaHCO3 to neutralize acid in the gastric fluid. One minute later, the mice were treated with PBS, 100 μg Ex4, or 100 μg Ex4-Lys^27-LCFA by oral gavage, respectively. All mice were then treated with 2 g/kg glucose by intraperitoneal injection 1 hour later. Blood samples were collected to measure blood glucose levels. Area under the curve (AUC) of blood glucose was calculated to evaluate hypoglycemic response to each treatment (FIG. 11).

In data set [4] the test system is Caco-2 cells. Put plainly: Uptake of fatty acid-Ex4 conjugate by Caco-2 cells. Format: cell-based, human. Particulars: Alexa594-labeled conjugates; incubation for one hour. As for the experimental part: FIG. 10. Examples of representative results of Caco-2 cell uptake. The fatty acid-conjugated Ex4 molecules were incubated with Alexa594 (fluorescent dye)-labeled Ex4-Lys^27-LCFA having 12, 16 and 18 carbon fatty acids (C12, C16, C18, respectively) and Ex4-Lys^27-SCFA (short chain fatty acid having 8 carbons, shown as C8) and were taken up by the cells. Levels of uptake were determined based on fluorescent intensity (MFI) inside the cells.
Coco-2 cells were seeded in cell culture plates. Cells were incubated with either fluorescently labeled Ex4-Lys^27-SCFA (C8) or one of the fluorescently labeled Ex4-Lys^27-LCFA having a C12, C16 and C18 LCFA. After incubation for one hour, cells were washed with PBS to remove fatty acid-conjugated Ex4. A plate reader was applied to measure fluorescent intensity in each well in the cell culture plate, and the results were compared (FIG. 10).

The nature of data set [5]: Intraperitoneal glucose tolerance test, GLP-1-Lys^26-LCFA in acid-neutralized mice. Format: in vivo, male C57BL/6 mice. As for the experimental part:
FIG. 12. Additional examples of representative glucose tolerance assay results. Glucose tolerance assays were performed after treatment with free GLP-1 analogue or GLP-1-Lys^26-LCFA. Each mouse was treated orally with 100 μL 1M NaHCO3 to neutralize acid in the gastric fluid as described before. After 1 minute, the mice were treated p.o. with PBS, 100 μg free GLP-1 analogue (GLP-1), or 100 μg GLP-1-Lys^26-LCFA. The mice were then challenged with intraperitoneal injection of 2 g/kg glucose 1 hour after treatment.
as §1, with “GTT” for “glucose tolerance test (GTT)”, “treated” for “treated by oral gavage”, “GLP-1 analogue,” for “Ex4,”, “GLP-1-Lys^26-LCFA” for “Ex4-Lys^27-LCFA”, “12).” for “11).”

Data set [6] relates to c-Myc. Description: Knockdown of c-Myc expression in Caco-2 cells (Western blot). It counts as cell-based, human. Particulars: 200 nM, without transfection reagent, 3 days. As for the experimental part:
FIG. 18. Examples of representative measurement data of protein expression. Western blot was performed to measure the suppression of c-Myc expression by LCFA-conjugated miR-34a mimic 3 days after Caco-2 cells were treated. c-Myc is a known target of miR-34a. Its expression level was detected both after a short exposure (short expo) and a relatively long exposure (long expo).
Caco-2 cells were seeded in 6-well cell culture plates, and treated (without any transfection reagent) with 200 nM free scramble siRNA (Scr), 200 nM free miR-34a mimic (miR-34a), or 200 nM LCFA-conjugated miR-34a (FA-miR-34a), respectively. Cells were harvested 3 days later, and lysed to prepare protein samples. Equal amount of protein samples was loaded in 10% SDS-polyacrylamide gels for Western blot analysis. The c-Myc protein was detected with an anti-c-Myc antibody. c-Myc expression levels were detected after both a short-time exposure (short expo) and relatively long-time exposure (long expo). β-Actin was served as an expression control (FIG. 18).
Background: Immunoblotting shows a protein as a band on a membrane.

The conditions of data set [7]: in human; co-formulated with SNAC; cited from earlier work.
Where [8] appears, read: 100 μg p.o. after 100 μL 1M NaHCO3, 2 g/kg glucose i.p. 1 hour after treatment, 15 minutes after challenge.
Setting [9] is: 100 μg p.o. after NaHCO3, 2 g/kg glucose i.p. 1 hour later.

Read-outs that look alike come from different tables or passages of the source.

In the case of `C=CC(=O)N1CCCC(n2nc(-c3ccc(Oc4ccccc4)cc3)c3c(NC(=O)CCCCCCCCCCCCCCCCC(=O)O)ncnc32)C1` (centres unmarked) [LCFA-ibrutinib], the “Area under the curve (AUC) of ibrutinib in plasma (HPLC)” value in data set [1] came out at 6.428. In addition, the “increase in plasma ibrutinib level compared with free ibrutinib (based on AUC)” value in data set [1] (3 h) was found to be 3 fold.

For the molecule `C=CC(=O)N1CCC[C@@H](n2nc(-c3ccc(Oc4ccccc4)cc3)c3c(N)ncnc32)C1` [ibrutinib], the values for the oral bioavailability in data set [2] (fasting state) and in data set [2] (fed state) were 3.9% and 8.4%, respectively.

Take “Ex4-Lys^27-LCFA: conjugated long-chain fatty acid and exendin-4 through lysine residue 27; C12, C16 and C18 dicarboxylic acids used”: the “blood glucose level after glucose challenge” value in data set [3] (setting [8]) is reported as “mild increase in blood glucose level”. Moreover, the “controlling blood glucose level after gavage in the acid-neutralized GI track” value in data set [3] (setting [9]) is reported as “effective in controlling blood glucose level”. For the same molecule, the “levels of uptake by Caco-2 cells (fluorescent intensity, MFI)” value in data set [4] was “high uptake”.

Regarding “free GLP-1: GLP-1 analogue with AIB at position 8 (SEQ ID. 2), unconjugated”, the “blood glucose level after glucose challenge” value in data set [5] (setting [8]) is reported as “high blood glucose levels”. For the same molecule, the “controlling blood glucose level after gavage in the acid-neutralized GI track” value in data set [5] (setting [9]) is given as “not”.

As to “miR-34a: free microRNA-34a mimic duplex (SEQ ID. 3 and 4), unconjugated control (chain 1 UGGCAGUGUCUUAGCUGGUUGUTT; chain 2 ACAACCAGCUAAGACACUGCCATT; sense strand nucleotides 20 and 21 methylated, type of methylation not given here)”, the “suppression of c-Myc expression” value in data set [6] is reported as “not”.

Take semaglutide: the oral bioavailability result in data set [7] is listed as “barely detectable”.
